This is an account of results in US6291676A, “Water-soluble derivatives of camptothecin/homocamptothecin” (priority 2000, dated 2001).

The nature of series [1]: HPLC lactone stability in presence of DMPC SUV. Format: physicochemical. Conditions: for less lactone compared to the prior art monoamine (7AEC): DMPC. The method, then: (§1) To further study the differential interactions of CT-17 versus 7AEC with liposomal particles, high performance liquid chromatographic (HPLC) methods were employed to study drug stabilities in the absence and presence of membranes. In these experiments, small unilamellar vesicles (SUV) composed of dimyristoyl phosphatidylcholine (DMPC) were prepared by weighing out dry lipid powder (Avanti Polar Lipids) in a glass tube with screw cap top. The lipid was suspended in phosphate buffered saline, pH 7.4, at the concentration of 20 mg/ml and vortexed vigorously for 1 minute. The suspension was sonicated in a bath-type sonicator (Laboratory Supplies Co., Hicksville, N.Y.) for 2-4 hours until optically clear solution is obtained. […] A decrease in pH from 7.4 to 7.2 was observed. The pH of the SUV preparation was adjusted to 7.4 by the addition of 0.1 M potassium hydroxide. The sample was resonicated after pH adjustment until optically clear. Small unilamellar vesicles composed of dimyristoyl phosphatidylglycerol (DMPG) were also prepared by weighing out dry powder of the lipid (Avanti Polar Lipids) in a glass tube with screw-cap top and prepared as in the case of DMPC. The pH of the preparation decreased from 7.4 to 6.9 and was adjusted to 7.4 by the addition of 0.1 M KOH. The preparation was resonicated for 30 minutes until optically clear.
(§2) Stock solutions of 7-(1-Aminoethyl)camptothecin, a monoamine compound known in the prior art, and CT-17 as prepared in Example 18 were prepared by weighing out dry powder and dissolving in dimethylsulfoxide (DMSO) at a concentration of 2 mM. The SUV preparations from above were incubated at 37° C. in a water bath for 30 minutes. The two camptothecin drugs were added to the SUV preparations such that the final drug concentrations were 1 μM. The samples were incubated at 37° C. and aliquots were withdrawn at 1 hour and 3 hours and added to cold methanol (-20° C.) and immediately analyzed by reversed-phase HPLC using the conditions as follows. Analysis was performed using either Waters Alliance 2690 LC system equipped with temperature controlled autosampler or Waters LC system equipped with temperature controlled 717 plus Autosampler and 501 pumps. The detection was using either Waters 470 or 474 fluorescence detectors. Solvent A was 2% triethylammonium acetate, pH 5.5 and Solvent B was acetonitrile. The column used was Waters Symmetry C18, 5 μm (3.9×150 mm). The autosampler temperature was maintained at 4-5° C. The conditions used for analysis of 7-(1-Aminoethyl)camptothecin: Isocratic elution using 15% of solvent A and 85% of solvent B; detection using λcx =370 and λcm =440. […] The HPLC data was collected and analyzed using Waters Millenium chromatography manager.

The nature of series [2]: HPLC lactone stability in presence of DMPG SUV. The series is classed as physicochemical. Conditions: for less lactone compared to the prior art monoamine (7AEC): DMPG. The method, then:
as §1, §2

Series [3] in a line: Stability of the lactone form of CT-17 free and in liposomes in PBS, plasma, whole blood. The series is classed as physicochemical, human. The method, then:
To determine the ability of CT-17 to be retained in liposomal preparations,the agent was loaded into liposomes using the active loading methodology as described previously (U.S. Pat. No. 5,192,549). Two types of liposomes were used: 1) non-stealth liposomes and 2) stealth liposomes. The liposome preparations were then incubated in various biological fluids to determine drug retention in the particle. In these experiments the lipid distearoylphosphatidylcholine (DSPC) was obtained from Avanti Polar Lipids (Birmingham, AL) and cholesterol was from Nutritional Biochemicals Corp., Cleveland, Ohio. […] Solvent was evaporated at 55-60° C. on rotary evaporator for 15 min to form the lipid film. The residual solvent was then removed under high vacuum at room temperature overnight. The lipid film was hydrated using 5 ml of 0.1 M ammonium sulfate. MLVs were formed by shaking and occasional vortexing at 55-60° C. LUVs were formed by passing the liposomal suspension through two 100 nm stacked polycarbonate filters under 20 psi pressure of nitrogen using 11 passes at 55-60° C. (Liposo-Fast-Pneumatic from AVESTIN, Toronto, Canada).
FIG. 7 is a graphical comparison of the stability of the lactone form of the camptothecin drug CT-17 as a function of time. […]

`CC[C@@]1(O)C(=O)OCc2c1cc1n(c2=O)Cc2c-1nc1ccccc1c2CNN1CCN(C)CC1` [CT-17, 7-[N-(4-methyl-1-piperazino)aminomethyl]-(20S)-camptothecin]: the remaining at 1 h, 1 µM in series [1] (DMPC SUV, PBS pH 7.4, 37° C, 1 hr, 1 μM drug, read-out: Percentage of Lactone, DMPC, 1 Hr) was 34 ± 3%; in series [2] (DMPG SUV, PBS pH 7.4, 37° C, 1 hr, 1 μM drug, read-out: Percentage of Lactone, DMPG, 1 Hr), 87 ± 2%. Moreover, the remaining at 3 h, 1 µM amounted to 19 ± 3% in series [1] (DMPC SUV, PBS pH 7.4, 37° C, 3 hr, 1 μM drug, read-out: Percentage of Lactone, DMPC, 3 Hr) and 78 ± 3% in series [2] (DMPG SUV, PBS pH 7.4, 37° C, 3 hr, 1 μM drug, read-out: Percentage of Lactone, DMPG, 3 Hr). The “less lactone compared to the prior art monoamine (7AEC)” value in series [1] (1 hr) amounted to 20%; in series [1] (3 hr) it was 17%; in series [2] (1 hr) it was 6%; in series [2] (3 hr) it was 8%. Besides, the “hydrolysis of free drug to inactive carboxylate” value in series [3] is “high rate and extensive amount of hydrolysis”.
